Experimental data: PubChem BioAssay (NCI)
Several values for one entry are separate records, joined by “and”; a condition that tells them apart may be missing. Equal entries are not always repeated.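 The compound was tested at five concentrations on cells cultured in 96-well plates, with a 48-hour exposure period. The concentration for 50% growth inhibition is given as GI50. TGI is the concentration that stops growth completely.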

Tested on: SN12K1 renal
Assay: inhibition of tumour cell growth, NCI panel, 48 h

| SMILES | GI50 [µM] | TGI |
| --- | --- | --- |
| N[C@@H](Cc1ccc(N(CCCl)CCCl)cc1)C(=O)O | 11.8 | 60.5 µM and 102 µM |
| COc1nc(C(Cl)(Cl)Cl)c(Cl)c(OC)c1Cl |  | 62.4 µM |
